In brackets after ≈: the same amount, converted by molar mass. Positions of bridges follow the written chain, without caps; N, C: chain ends. Non-standard residues stand in square brackets, D forms with d. Residues, ends and D or L forms follow the SMILES beside them. *: point of attachment. Benzoyl(4-Ph) = O=C(c1ccc(-c2ccccc2)cc1)*; Dab = NCC[C@H](N)C(=O)O
Legend:
[1] = system: Escherichia coli; test: Antibacterial activity against Escherichia coli assessed as inhibition of bacterial growth incubated for 24 hrs by broth microdilution method; format: functional; conditions: read-out: MIC100
[2] = system: Klebsiella pneumoniae; test: Antibacterial activity against Klebsiella pneumoniae assessed as inhibition of bacterial growth incubated for 24 hrs by broth microdilution method; format: functional; conditions: read-out: MIC100
[3] = system: Pseudomonas aeruginosa; test: Antibacterial activity against Pseudomonas aeruginosa PAO1 assessed as inhibition of bacterial growth incubated for 24 hrs by broth microdilution method; format: functional; conditions: read-out: MIC100
[4] = system: HK-2; test: Cytotoxicity against human HK-2 cells assessed as cell viability incubated for 72 hrs by CCK-8 assay; format: cell-based; conditions: hk-2, 72 h
[5] = system: Pseudomonas aeruginosa; test: Antibacterial activity against Pseudomonas aeruginosa assessed as inhibition of bacterial growth incubated for 24 hrs by broth microdilution method; format: functional; conditions: read-out: MIC100
[6] = system: Moraxella catarrhalis; test: Antibacterial activity against Moraxella catarrhalis assessed as inhibition of bacterial growth incubated for 24 hrs by broth microdilution method; format: functional; conditions: read-out: MIC100
[7] = system: Acinetobacter baumannii; test: Antibacterial activity against Acinetobacter baumannii assessed as inhibition of bacterial growth incubated for 24 hrs by broth microdilution method; format: functional; conditions: read-out: MIC100
[8] = system: Klebsiella pneumoniae; test: Antibacterial activity against Klebsiella pneumoniae KPN+14-8 assessed as inhibition of bacterial growth incubated for 24 hrs by broth microdilution method; format: functional; conditions: read-out: MIC100
[9] = system: Klebsiella pneumoniae; test: Antibacterial activity against Klebsiella pneumoniae KR15-2 assessed as inhibition of bacterial growth incubated for 24 hrs by broth microdilution method; format: functional; conditions: read-out: MIC100
[10] = system: Acinetobacter baumannii; test: Antibacterial activity against Acinetobacter baumannii ABA15-6 assessed as inhibition of bacterial growth incubated for 24 hrs by broth microdilution method; format: functional; conditions: read-out: MIC100
[11] = system: Escherichia coli; test: Antibacterial activity against Escherichia coli ECO+14-2 assessed as inhibition of bacterial growth incubated for 24 hrs by broth microdilution method; format: functional; conditions: read-out: MIC100
[12] = system: Pseudomonas aeruginosa; test: Antibacterial activity against Pseudomonas aeruginosa PR15-1 assessed as inhibition of bacterial growth incubated for 24 hrs by broth microdilution method; format: functional; conditions: read-out: MIC100
[13] = system: Pseudomonas aeruginosa; test: Antibacterial activity against Pseudomonas aeruginosa PAE15-14 assessed as inhibition of bacterial growth incubated for 24 hrs by broth microdilution method; format: functional; conditions: read-out: MIC100
[14] = system: Pseudomonas aeruginosa; test: Antibacterial activity against Pseudomonas aeruginosa PAE15-5 assessed as inhibition of bacterial growth incubated for 24 hrs by broth microdilution method; format: functional; conditions: read-out: MIC100
[15] = system: Moraxella catarrhalis; test: Antibacterial activity against Moraxella catarrhalis BCA14-7 assessed as inhibition of bacterial growth incubated for 24 hrs by broth microdilution method; format: functional; conditions: read-out: MIC100
[16] = system: Acinetobacter baumannii; test: Antibacterial activity against Acinetobacter baumannii ABA15-5 assessed as inhibition of bacterial growth incubated for 24 hrs by broth microdilution method; format: functional; conditions: read-out: MIC100
[17] = system: Escherichia coli; test: Antibacterial activity against Escherichia coli ECO-14-2 assessed as inhibition of bacterial growth incubated for 24 hrs by broth microdilution method; format: functional; conditions: read-out: MIC100
[18] = system: Pseudomonas aeruginosa; test: Antibacterial activity against Pseudomonas aeruginosa ATCC 27853 assessed as inhibition of bacterial growth incubated for 24 hrs by broth microdilution method; format: functional; conditions: read-out: MIC100
[19] = system: Pseudomonas aeruginosa; test: Antibacterial activity against Pseudomonas aeruginosa PAE15-3 assessed as inhibition of bacterial growth incubated for 24 hrs by broth microdilution method; format: functional; conditions: read-out: MIC100
[20] = system: Pseudomonas aeruginosa; test: Antibacterial activity against Pseudomonas aeruginosa PAE15-8 assessed as inhibition of bacterial growth incubated for 24 hrs by broth microdilution method; format: functional; conditions: read-out: MIC100
[21] = system: Acinetobacter baumannii; test: Antibacterial activity against Acinetobacter baumannii AR15-4 assessed as inhibition of bacterial growth incubated for 24 hrs by broth microdilution method; format: functional; conditions: read-out: MIC100
[22] = system: Escherichia coli; test: Antibacterial activity against Escherichia coli ECO+14-3 assessed as inhibition of bacterial growth incubated for 24 hrs by broth microdilution method; format: functional; conditions: read-out: MIC100
[23] = system: Moraxella catarrhalis; test: Antibacterial activity against Moraxella catarrhalis BCA15-3 assessed as inhibition of bacterial growth incubated for 24 hrs by broth microdilution method; format: functional; conditions: read-out: MIC100
[24] = system: Acinetobacter baumannii; test: Antibacterial activity against Acinetobacter baumannii ABA15-4 assessed as inhibition of bacterial growth incubated for 24 hrs by broth microdilution method; format: functional; conditions: read-out: MIC100
[25] = system: Klebsiella pneumoniae; test: Antibacterial activity against Klebsiella pneumoniae KPN+14-10 assessed as inhibition of bacterial growth incubated for 24 hrs by broth microdilution method; format: functional; conditions: read-out: MIC100

Row | SMILES | MIC [1] | MIC [2] | MIC [3] | MIC [5] | MIC [6] | MIC [7] | MIC [8] | MIC [9] | MIC [10] | MIC [11] | MIC [12] | MIC [13] | MIC [14] | MIC [15] | MIC [16] | MIC [17] | MIC [18] | MIC [19] | MIC [20] | MIC [21] | other results
1 | CCCCCCCC(=O)N[C@@H](CCN)C(=O)N[C@H](C(=O)N[C@@H](CCN)C(=O)N[C@H]1CCNC(=O)[C@H](Cc2ccccc2)NC(=O)[C@H](CCN)NC(=O)[C@H](CCN)NC(=O)[C@H](CC(C)C)NC(=O)[C@@H](Cc2ccccc2)NC(=O)[C@H](CCN)NC1=O)[C@@H](C)O | 2 µg/mL (≈ 1.62 µM) | 2 µg/mL (≈ 1.62 µM) | 4 µg/mL (≈ 3.24 µM) | 0.25 µg/mL (≈ 0.202 µM) | 2 µg/mL (≈ 1.62 µM) | 0.06 µg/mL (≈ 0.0486 µM) |  |  |  |  |  |  |  |  |  |  |  |  |  |  | Activity [4]: Non-Toxic
2 | CC[C@H](C)CCCCC(=O)N[C@@H](CCN)C(=O)N[C@H](C(=O)N[C@@H](CCN)C(=O)N[C@H]1CCNC(=O)[C@H]([C@@H](C)O)NC(=O)[C@H](CCN)NC(=O)[C@H](CCN)NC(=O)[C@H](CC(C)C)NC(=O)[C@@H](Cc2ccccc2)NC(=O)[C@H](CCN)NC1=O)[C@@H](C)OC(=O)[C@@H](N)Cc1ccc(O)cc1 | 0.25 µg/mL (≈ 0.183 µM) | 2 µg/mL (≈ 1.46 µM) | 1 µg/mL (≈ 0.732 µM) | 0.125 µg/mL (≈ 0.0915 µM) | > 32 µg/mL | 0.03 µg/mL (≈ 0.022 µM) | 4 µg/mL (≈ 2.93 µM) | 4 µg/mL (≈ 2.93 µM) | 0.03 µg/mL (≈ 0.022 µM) | 2 µg/mL (≈ 1.46 µM) | 0.5 µg/mL (≈ 0.366 µM) | 0.25 µg/mL (≈ 0.183 µM) | 0.25 µg/mL (≈ 0.183 µM) | 32 µg/mL (≈ 23.4 µM) | 0.06 µg/mL (≈ 0.0439 µM) | 0.25 µg/mL (≈ 0.183 µM) | 0.125 µg/mL (≈ 0.0915 µM) | 0.5 µg/mL (≈ 0.366 µM) | 0.5 µg/mL (≈ 0.366 µM) | 0.125 µg/mL (≈ 0.0915 µM) | MIC [22]: 0.25 µg/mL (≈ 0.183 µM); MIC [23]: 1 µg/mL (≈ 0.732 µM); MIC [24]: 0.06 µg/mL (≈ 0.0439 µM); MIC [25]: 2 µg/mL (≈ 1.46 µM)
3 | CCCCCCCC(=O)N[C@@H](CCN)C(=O)N[C@H](C(=O)N[C@@H](CCN)C(=O)N[C@H]1CCNC(=O)[C@H](CCC(N)=O)NC(=O)[C@H](CCN)NC(=O)[C@H](CCN)NC(=O)[C@H](CC(C)C)NC(=O)[C@@H](Cc2ccccc2)NC(=O)[C@H](CCN)NC1=O)[C@@H](C)O |  |  | 32 µg/mL (≈ 26.3 µM) |  |  |  |  |  |  |  |  |  |  |  |  |  |  |  |  |  | Activity [4]: Non-Toxic
4 | CC(C)C[C@@H]1NC(=O)[C@@H](Cc2ccccc2)NC(=O)[C@H](CCN)NC(=O)[C@@H](NC(=O)[C@H](CCN)NC(=O)[C@@H](NC(=O)[C@H](CCN)NC(=O)c2ccc(-c3ccccc3)cc2)[C@@H](C)O)CCNC(=O)[C@H]([C@@H](C)O)NC(=O)[C@H](CCN)NC(=O)[C@H](CCN)NC1=O ({Benzoyl(4-Ph)}-[Dab]T[Dab][Dab][Dab][dF]L[Dab][Dab]T; lactam 4-C) | 0.5 µg/mL (≈ 0.402 µM) | 2 µg/mL (≈ 1.61 µM) | 4 µg/mL (≈ 3.22 µM) | 0.06 µg/mL (≈ 0.0483 µM) | 8 µg/mL (≈ 6.43 µM) | 0.06 µg/mL (≈ 0.0483 µM) | 4 µg/mL (≈ 3.22 µM) | 2 µg/mL (≈ 1.61 µM) | 0.125 µg/mL (≈ 0.101 µM) | 2 µg/mL (≈ 1.61 µM) | 5 µg/mL (≈ 4.02 µM) | 0.125 µg/mL (≈ 0.101 µM) | 0.125 µg/mL (≈ 0.101 µM) | 16 µg/mL (≈ 12.9 µM) | 0.06 µg/mL (≈ 0.0483 µM) | 0.5 µg/mL (≈ 0.402 µM) | 0.06 µg/mL (≈ 0.0483 µM) | 0.5 µg/mL (≈ 0.402 µM) | 0.125 µg/mL (≈ 0.101 µM) | 0.06 µg/mL (≈ 0.0483 µM) | MIC [22]: 1 µg/mL (≈ 0.804 µM); MIC [23]: 1 µg/mL (≈ 0.804 µM); MIC [24]: 0.06 µg/mL (≈ 0.0483 µM); MIC [25]: 2 µg/mL (≈ 1.61 µM)
5 | CCCCCc1ccc(CN[C@@H](CCN)C(=O)N[C@H](C(=O)N[C@@H](CCN)C(=O)N[C@H]2CCNC(=O)[C@H]([C@@H](C)O)NC(=O)[C@H](CCN)NC(=O)[C@H](CCN)NC(=O)[C@H](CC(C)C)NC(=O)[C@@H](Cc3ccccc3)NC(=O)[C@H](CCN)NC2=O)[C@@H](C)O)cc1 | 0.5 µg/mL (≈ 0.409 µM) | 1 µg/mL (≈ 0.817 µM) | 2 µg/mL (≈ 1.63 µM) | 0.25 µg/mL (≈ 0.204 µM) | 8 µg/mL (≈ 6.54 µM) | 0.25 µg/mL (≈ 0.204 µM) | 4 µg/mL (≈ 3.27 µM) | 1 µg/mL (≈ 0.817 µM) | 0.5 µg/mL (≈ 0.409 µM) | 1 µg/mL (≈ 0.817 µM) | 0.5 µg/mL (≈ 0.409 µM) | 0.5 µg/mL (≈ 0.409 µM) | 0.5 µg/mL (≈ 0.409 µM) | 8 µg/mL (≈ 6.54 µM) | 0.25 µg/mL (≈ 0.204 µM) | 0.5 µg/mL (≈ 0.409 µM) | 0.25 µg/mL (≈ 0.204 µM) | 0.5 µg/mL (≈ 0.409 µM) | 0.5 µg/mL (≈ 0.409 µM) | 0.25 µg/mL (≈ 0.204 µM) | MIC [22]: 0.5 µg/mL (≈ 0.409 µM); MIC [23]: 1 µg/mL (≈ 0.817 µM); MIC [24]: 0.5 µg/mL (≈ 0.409 µM); MIC [25]: 2 µg/mL (≈ 1.63 µM)

Source: ChEMBL document CHEMBL4825673, “Total and Semisyntheses of Polymyxin Analogues with 2-Thr or 10-Thr Modifications to Decipher the Structure-Activity Relationship and Improve the Antibacterial Activity” (J Med Chem, 2021)
